Results published in patent publication US10470993B2, “Tooth remineralization compositions and methods” (priority 2013, dated 2019).

Tested on: S. mutans
Assay type: cell-based
Method: Chitosan is a known antimicrobial. The antimicrobial activities of chitosans were determined with XTT assay based on the measurement of bacterial metabolic activities. The bacteria include S. sanguis, S. fecalis, and S. mutans. […] The metabolic activity and viability of S. mutans was decreased with the increase of the molecular weight of chitosan from 1K to 10K, as shown in FIG. 3. […] The relative viability of S. mutans treated with chitosan 10K was only about 10% as compared to the control. […] The chitosan with molecular weight of 10K reached the greatest inhibition effect against S. mutans in our XTT assay.
The antimicrobial activity of chitosan 10K was tested on three different oral bacteria which are major bacteria responsible for the occurrence of dental caries. […] The antimicrobial effects are concentration dependent and increased with increased chitosan concentration.

Substance	relative viability of S. mutans as compared to the control
chitosan [chitosan 10K]	about 10%
chitosan [chitosan 5K]	55%
